Measured values reported in patent US4316955A, “Enzymatic deesterification of cephalosporin methyl esters” (Eli Lilly and Company, priority 1980, dated 1982).

Experiments:
[1] = test system: A49492 (Streptomyces capillispira); test: Antibiotic disk sensitivity test of A49492; further: key: +: a plus indicates that a zone of inhibition was formed; -: a minus sign indicates that there was no inhibition zone; format: cell-based; conditions: ISP No. 2 agar seeded with 2% vegetative inoculum; amount per disk: Erythromycin 15 μg, Keflin 30 μg, Lincomycin 2 μg, Nystatin 100 U, Polymixin B 300 U, Streptomycin 10 μg, Tetracycline 30 μg, Vancomycin 5 μg
Method: Sodium chloride and sucrose tolerance were measured using ISP No. 2 agar. Antibiotic sensitivity was determined with sensitivity discs placed onto the surface of ISP No. 2 agar plates seeded with 2% vegetative inoculum.
In the table below, the column headed "Amount" indicates the amount of the antibiotic deposited on each disk.

[2] = test system: enzyme produced by Streptomyces capillispira; test: Deesterification shown by paper chromatography and bioautography; format: biochemical; conditions: 3-day culture, 30°, 16-20 hours; chromatogram acylated with phenoxyacetyl chloride; plate seeded with B. subtilis
Method: The usual method made use of filter paper chromatography, with 4/1 acetonitrile/water as the solvent.
If the substrate ester was a cephalosporin nucleus ester, having only an amino group at the 7-position, then the amount of acid could not be measured directly, because the nucleus acid is not active against the test organism.
The inoculated tube was shaken at 30° for 3 days, and then 4 ml. of the culture was transferred to a 50-ml. flask. To the flask was added 1 ml. of a filter-sterilized substrate solution containing 5 mg./ml. of methyl 7-amino-3-methyl-3-cephem-4-carboxylate at pH 7.0.
The flask was then incubated with shaking at 30° for 16-20 hours to allow the enzyme to deesterify the substrate compound.
The supernatant from the centrifugation was evaluated by paper chromatography as described above, using 4/1 acetonitrile/water as the solvent.
A substrate solution containing about 2 mg./ml. of methyl 7-amino(phenyl)acetamido-3-methyl-3-cephem-4-carboxylate (methyl cephalexin) was prepared in water, at pH 7.2. […] The mixture was shaken at 30° for 4 hours, and was then analyzed by paper chromatography, overlaying the chromatograms on nutrient agar plates seeded with Sarcina lutea.

[3] = test system: enzyme produced by Streptomyces capillispira; test: Rate of enzymatic deesterification of cephalosporin methyl esters (titrimetric / spot-plate); format: biochemical
Method: Another detection method, called the spot plate method, was carried out by pipetting a carefully measured amount, usually 10 μl., of the mixture to be analyzed onto a filter paper sheet which had small zones outlined by lacquer so that liquids placed on the zones were isolated from each other. If the substrate compound was a nucleus ester, so that acylation was necessary, each zone was also spotted with 10 μl. of 2% sodium bicarbonate solution, and 20 μl. of 2.5% phenoxyacetyl chloride in petroleum ether. The spots were air-dried, and the paper sheets were overlaid on the agar surface of an assay plate which had been seeded with a spore suspension of B. subtilis. The sheets were left on the agar plates for about 45 minutes, and were then removed and the agar plates were incubated at 25° overnight. The sizes of the zones of inhibition were then measured, and the amount of cephalosporin acid in the sample was determined by comparison with the sizes of the zones produced by known amounts of the cephalosporin acid which was the product of the deesterification.
The above biological analytical methods are useful both for unpurified fermentation mixtures, and for purified enzyme preparations. Purified preparations are readily analyzed by titrimetric methods which determine the amount of acid produced by measuring the amounts of base needed to maintain constant pH during the reaction. Thus, the deesterification reaction is easily monitored with an automatic titrator by adding the enzyme preparation to an appropriate substrate solution and following the course of deesterification by the amount of base added to the sample by the automatic titrator.
The activity of the enzyme preparations in the following examples is described as a rate, usually measured in terms of (moles of substrate deesterified)/(mg. of protein or cells)(minute). In some instances, the activity of the enzyme was described in other ways, and such instances are explained in the pertinent examples.
The substrate against which enzyme activity was measured was methyl 7-amino-3-methyl-3-cephem-4-carboxylate unless otherwise stated.
In this experiment, the enzyme preparation of Example 16 was used to deesterify methyl cephalexin, and the rate of hydrolysis was measured by pH-stat titration. Reaction mixtures were prepared as shown in Example 16, except that 1 ml. of the enzyme preparation and 2 ml. of substrate solution were used, so that the final reaction mixture contained 2.5 mg./ml. of protein.
A purified enzyme preparation, prepared substantially as described in Example 15 above, and containing 0.66 mg./ml. of protein was used to deesterify methyl 7-amino(phenyl)acetamido-3-chloro-3-cephem-4-carboxylate(methyl cefaclor). […]

Molecule	Result (zone of inhibition, disk sensitivity) [1]	also measured
CN(C)C1C(=O)C(C(N)=O)=C(O)C2(O)C(=O)C3=C(O)c4c(O)cccc4C(C)(O)C3CC12 (stereo not shown) [Tetracycline]	+	
COC(=O)C1=C(C)CS[C@@H]2C(N)C(=O)N12 (stereo partly shown) [methyl 7-amino-3-methyl-3-cephem-4-carboxylate]		deesterification in culture, zone of inhibition after acylation [2]: zone of inhibition; Km value for the enzyme [3]: about 2.3 mg./ml.; lowest reaction rate ([3]; 15°, pH 8.0, Sephacryl-purified enzyme, automatic titrator, corrected for non-enzymatic hydrolysis): 1e-05 mol/min (liter); highest reaction rate ([3]; 30°, pH 8.0, Sephacryl-purified enzyme, automatic titrator, corrected for non-enzymatic hydrolysis): 1.9×10^-5 moles of ester hydrolyzed/(minute) (liter of reaction mixture); activity of cell sonicate supernatant ([3]; supernatant containing 14.4 mg./ml. of protein, Example 15): 2.2×10^-5 moles of ester hydrolyzed/(minute) (liter)
Polymixin B	-	
CC[C@H]1OC(=O)[C@H](C)[C@@H](O[C@H]2C[C@@](C)(OC)[C@@H](O)[C@H](C)O2)[C@H](C)[C@@H](O[C@@H]2O[C@H](C)C[C@H](N(C)C)[C@H]2O)[C@](C)(O)C[C@@H](C)C(=O)[C@H](C)[C@@H](O)[C@]1(C)O [Erythromycin]	-	
CCC[C@@H]1C[C@@H](C(=O)N[C@@H]([C@H]2O[C@H](SC)[C@H](O)[C@@H](O)[C@H]2O)[C@@H](C)O)N(C)C1 [Lincomycin]	-	
C[C@@H]1[C@H](O)[C@@H](C)/C=C/C=C/CC/C=C/C=C/C=C/C=C/C(O[C@H]2O[C@H](C)[C@@H](O)[C@H](N)[C@@H]2O)CC2O[C@](O)(CC(O)C(O)CCC(O)CC(O)CC(O)CC(=O)O[C@H]1C)CC(O)C2C(=O)O (stereo partly shown) [Nystatin]	-	
CN[C@H](CC(C)C)C(=O)N[C@H]1C(=O)N[C@@H](CC(N)=O)C(=O)N[C@H]2C(=O)N[C@H]3C(=O)N[C@H](C(=O)N[C@H](C(=O)O)c4cc(O)cc(O)c4-c4cc3ccc4O)[C@H](O)c3ccc(c(Cl)c3)Oc3cc2cc(c3O[C@@H]2O[C@H](CO)[C@@H](O)[C@H](O)[C@H]2O[C@H]2C[C@](C)(N)[C@H](O)[C@H](C)O2)Oc2ccc(cc2Cl)[C@H]1O [Vancomycin]	+	
[H]/N=C(/N)N[C@H]1[C@H](O)[C@@H](O)[C@H](O[C@@H]2O[C@@H](C)[C@](O)(C=O)[C@H]2O[C@@H]2O[C@@H](CO)[C@H](O)[C@@H](O)[C@@H]2NC)[C@@H](N/C(N)=N\[H])[C@@H]1O [Streptomycin]	+	
CC(=O)OCC1=C(C(=O)O)N2C(=O)[C@@H](NC(=O)Cc3cccs3)[C@H]2SC1 [Keflin]	-	
